Data: US9439432B2, “Phenylisoxazoline-based compound having herbicidal activity and use thereof” (MOGHU RESEARCH CENTER LTD, priority 2011, dated 2016)

What was measured:
Assay type in all cases: in vivo
Alopecurus myosuroides [1] = experiment: Pre-emergence treatment, herbicidal efficacy on blackgrass; settings: 4 weeks after spraying, scale 0 to 10
Method: (§1) A rectangular plastic pot having a surface area of 300 cm^2 was filled with sandy loam soil and mixed bed soil which were mixed at a ratio of 1:1, and then, barnyardrass (Echinochloa crusgalli), large crabgrass (Digitaria sanguinalis), blackgrass (Alopecurus myosuroides), and annual bluegrass (Poa annua), which are grass weeds, were seeded thereto. In a pot that was prepared as described above, seeds of corn, soybean, cotton, wheat, and rice were seeded. The pots were irrigated, and one day after, chemicals were sprayed thereto. The spraying was performed by using a track sprayer (R&D Sprayer, USA) equipped with a Teejet 8002 (Spraying Systems Co., USA) nozzle, and a spraying amount was adjusted at 300 L/ha. A spraying solution was prepared by dissolving test materials or references in acetone and adding the same amount of 0.2%(v/v) tween 20 aqueous solution thereto. Application rates were 500, 250, 125, and 62.5 g/ha. The pots were placed in a greenhouse in which during day, the temperature was maintained at a temperature of 25 to 30° C., and during night, the temperature was maintained at a temperature of 15 to 25° C., and the pots were periodically irrigated. Four weeks after the spraying the test materials or References, effects and phytotoxicity of the respective weeds and crops were evaluated in a scale of 0 to 10 (0: no effects, 10: complete death), and results thereof are shown in Table 4 below.

Digitaria sanguinalis [2] = experiment: Pre-emergence treatment, herbicidal efficacy on large crabgrass; settings: 4 weeks after spraying, scale 0 to 10
Method: as §1

Corn [3] = experiment: Pre-emergence treatment, phytotoxicity to corn; settings: 500 g/ha, 4 weeks after spraying, scale 0 to 10 (0: no effects, 10: complete death)
Method: as §1

Soybean [4] = experiment: Post-emergence treatment, phytotoxicity to soybean; settings: post-emergence (about 3 leaf stage), 1,000 g/ha, 4 weeks after spraying, scale 0 to 10 (0: no effects, 10: complete death)
Method: as §1
(§2) Pots containing crops and weeds were prepared in the same manner as in Example 7, and then, in the second week in which crops and weeds entered into about 3 leaf stage, the test materials and the references were sprayed thereto in the same manner as described above. The rates were 1,000, 500, 250, and 125 g/ha. Four weeks after the spraying of the test materials or the references, herbicidal efficacy and phytotoxicity to the respective weeds and crops were evaluated in a scale of 0 to 10 (0: no effects, 10: complete death).

Digitaria sanguinalis [5] = experiment: Post-emergence treatment, herbicidal efficacy on large crabgrass; settings: 4 weeks after spraying, scale 0 to 10
Method: as §1, §2

Echinochloa crusgalli [6] = experiment: Pre-emergence treatment, herbicidal efficacy on barnyardgrass; settings: 4 weeks after spraying
Method: as §1

Poa annua [7] = experiment: Pre-emergence treatment, herbicidal efficacy on annual bluegrass; settings: 4 weeks after spraying, scale 0 to 10
Method: as §1

Cotton [8] = experiment: Pre-emergence treatment, phytotoxicity to cotton; settings: 500 g/ha, 4 weeks after spraying, scale 0 to 10 (0: no effects, 10: complete death)
Method: as §1

Poa annua [9] = experiment: Post-emergence treatment, herbicidal efficacy on annual bluegrass; settings: 4 weeks after spraying, scale 0 to 10
Method: as §1, §2

Rice [10] = experiment: Post-emergence treatment, phytotoxicity to rice; settings: post-emergence (about 3 leaf stage), 1,000 g/ha, 4 weeks after spraying, scale 0 to 10 (0: no effects, 10: complete death)
Method: as §1, §2

Echinochloa crusgalli [11] = experiment: Post-emergence treatment, herbicidal efficacy on barnyardgrass; settings: 4 weeks after spraying, scale 0 to 10
Method: as §1, §2

Cotton [12] = experiment: Post-emergence treatment, phytotoxicity to cotton; settings: post-emergence (about 3 leaf stage), 1,000 g/ha, 4 weeks after spraying, scale 0 to 10 (0: no effects, 10: complete death)
Method: as §1, §2

Rice [13] = experiment: Pre-emergence treatment, phytotoxicity to rice; settings: 500 g/ha, 4 weeks after spraying, scale 0 to 10 (0: no effects, 10: complete death)
Method: as §1

Wheat [14] = experiment: Post-emergence treatment, phytotoxicity to wheat; settings: post-emergence (about 3 leaf stage), 1,000 g/ha, 4 weeks after spraying, scale 0 to 10 (0: no effects, 10: complete death)
Method: as §1, §2

Wheat [15] = experiment: Pre-emergence treatment, phytotoxicity to wheat; settings: 500 g/ha, 4 weeks after spraying, scale 0 to 10 (0: no effects, 10: complete death)
Method: as §1

Soybean [16] = experiment: Pre-emergence treatment, phytotoxicity to soybean; settings: 500 g/ha, 4 weeks after spraying, scale 0 to 10 (0: no effects, 10: complete death)
Method: as §1

Corn [17] = experiment: Post-emergence treatment, phytotoxicity to corn; settings: post-emergence (about 3 leaf stage), 1,000 g/ha, 4 weeks after spraying, scale 0 to 10 (0: no effects, 10: complete death)
Method: as §1, §2

Alopecurus myosuroides [18] = experiment: Post-emergence treatment, herbicidal efficacy on blackgrass; settings: 4 weeks after spraying, scale 0 to 10
Method: as §1, §2

[19] = 500 g/ha, scale 0 to 10 (0: no effects, 10: complete death)

## Cc1ccc(C2=NOC(C)(COCc3c(F)cccc3F)C2)cc1 (stereo not drawn) [Reference G]
Alopecurus myosuroides [1]; 62.5 g/ha
  Herbicidal efficacy, Alopecurus myosuroides: 0
Alopecurus myosuroides [1]; 125 g/ha
  Herbicidal efficacy, Alopecurus myosuroides: 0
Alopecurus myosuroides [1]; 250 g/ha
  Herbicidal efficacy, Alopecurus myosuroides: 0
Alopecurus myosuroides [1]; 500 g/ha
  Herbicidal efficacy, Alopecurus myosuroides: 3
Digitaria sanguinalis [2]; 62.5 g/ha
  Herbicidal efficacy, Digitaria sanguinalis: 1
Digitaria sanguinalis [2]; 125 g/ha
  Herbicidal efficacy, Digitaria sanguinalis: 4
Digitaria sanguinalis [2]; 250 g/ha
  Herbicidal efficacy, Digitaria sanguinalis: 8
Digitaria sanguinalis [2]; 500 g/ha
  Herbicidal efficacy, Digitaria sanguinalis: 10
Corn [3]
  Phytotoxicity, Corn: 0
Soybean [4]
  Phytotoxicity, Soybean: 2
Digitaria sanguinalis [5]; post-emergence, 125 g/ha
  Herbicidal efficacy, Digitaria sanguinalis: 0
Digitaria sanguinalis [5]; post-emergence, 250 g/ha
  Herbicidal efficacy, Digitaria sanguinalis: 0
Digitaria sanguinalis [5]; post-emergence, 500 g/ha
  Herbicidal efficacy, Digitaria sanguinalis: 4
Digitaria sanguinalis [5]; post-emergence, 1,000 g/ha
  Herbicidal efficacy, Digitaria sanguinalis: 6
Echinochloa crusgalli [6]; 62.5 g/ha, scale 0 to 10
  Herbicidal efficacy, Echinochloa crusgalli: 0
Echinochloa crusgalli [6]; 125 g/ha, scale 0 to 10
  Herbicidal efficacy, Echinochloa crusgalli: 3
Echinochloa crusgalli [6]; 250 g/ha, scale 0 to 10
  Herbicidal efficacy, Echinochloa crusgalli: 7
Echinochloa crusgalli [6]; [19]
  Herbicidal efficacy, Echinochloa crusgalli: 10
Poa annua [7]; 62.5 g/ha
  Herbicidal efficacy, Poa annua: 1
Poa annua [7]; 125 g/ha
  Herbicidal efficacy, Poa annua: 4
Poa annua [7]; 250 g/ha
  Herbicidal efficacy, Poa annua: 8
Poa annua [7]; 500 g/ha
  Herbicidal efficacy, Poa annua: 9
Cotton [8]
  Phytotoxicity, Cotton: 0
Poa annua [9]; post-emergence, 125 g/ha
  Herbicidal efficacy, Poa annua: 0
Poa annua [9]; post-emergence, 250 g/ha
  Herbicidal efficacy, Poa annua: 1
Poa annua [9]; post-emergence, 500 g/ha
  Herbicidal efficacy, Poa annua: 4
Poa annua [9]; post-emergence, 1,000 g/ha
  Herbicidal efficacy, Poa annua: 6
Rice [10]
  Phytotoxicity, Rice: 0
Echinochloa crusgalli [11]; post-emergence, 125 g/ha
  Herbicidal efficacy, Echinochloa crusgalli: 0
Echinochloa crusgalli [11]; post-emergence, 250 g/ha
  Herbicidal efficacy, Echinochloa crusgalli: 2
Echinochloa crusgalli [11]; post-emergence, 500 g/ha
  Herbicidal efficacy, Echinochloa crusgalli: 5
Echinochloa crusgalli [11]; post-emergence, 1,000 g/ha
  Herbicidal efficacy, Echinochloa crusgalli: 6
Cotton [12]
  Phytotoxicity, Cotton: 0
Rice [13]
  Phytotoxicity, Rice: 0
Wheat [14]
  Phytotoxicity, Wheat: 0
Wheat [15]
  Phytotoxicity, Wheat: 0
Soybean [16]
  Phytotoxicity, Soybean: 0
Corn [17]
  Phytotoxicity, Corn: 0
Alopecurus myosuroides [18]; post-emergence, 125 g/ha
  Herbicidal efficacy, Alopecurus myosuroides: 0
Alopecurus myosuroides [18]; post-emergence, 250 g/ha
  Herbicidal efficacy, Alopecurus myosuroides: 0
Alopecurus myosuroides [18]; post-emergence, 500 g/ha
  Herbicidal efficacy, Alopecurus myosuroides: 2
Alopecurus myosuroides [18]; post-emergence, 1,000 g/ha
  Herbicidal efficacy, Alopecurus myosuroides: 3

## CC1(COCc2ccccc2F)CC(c2ccccc2[N+](=O)[O-])=NO1 (stereo not drawn) [Reference A]
Alopecurus myosuroides [1]; 62.5 g/ha
  Herbicidal efficacy, Alopecurus myosuroides: 0
Alopecurus myosuroides [1]; 125 g/ha
  Herbicidal efficacy, Alopecurus myosuroides: 0
Alopecurus myosuroides [1]; 250 g/ha
  Herbicidal efficacy, Alopecurus myosuroides: 3
Alopecurus myosuroides [1]; 500 g/ha
  Herbicidal efficacy, Alopecurus myosuroides: 10
Digitaria sanguinalis [2]; 62.5 g/ha
  Herbicidal efficacy, Digitaria sanguinalis: 0
Digitaria sanguinalis [2]; 125 g/ha
  Herbicidal efficacy, Digitaria sanguinalis: 2
Digitaria sanguinalis [2]; 250 g/ha
  Herbicidal efficacy, Digitaria sanguinalis: 6
Digitaria sanguinalis [2]; 500 g/ha
  Herbicidal efficacy, Digitaria sanguinalis: 10
Corn [3]
  Phytotoxicity, Corn: 0
Soybean [4]
  Phytotoxicity, Soybean: 1
Digitaria sanguinalis [5]; post-emergence, 125 g/ha
  Herbicidal efficacy, Digitaria sanguinalis: 0
Digitaria sanguinalis [5]; post-emergence, 250 g/ha
  Herbicidal efficacy, Digitaria sanguinalis: 1
Digitaria sanguinalis [5]; post-emergence, 500 g/ha
  Herbicidal efficacy, Digitaria sanguinalis: 4
Digitaria sanguinalis [5]; post-emergence, 1,000 g/ha
  Herbicidal efficacy, Digitaria sanguinalis: 5
Echinochloa crusgalli [6]; 62.5 g/ha, scale 0 to 10
  Herbicidal efficacy, Echinochloa crusgalli: 0
Echinochloa crusgalli [6]; 125 g/ha, scale 0 to 10
  Herbicidal efficacy, Echinochloa crusgalli: 2
Echinochloa crusgalli [6]; 250 g/ha, scale 0 to 10
  Herbicidal efficacy, Echinochloa crusgalli: 6
Echinochloa crusgalli [6]; [19]
  Herbicidal efficacy, Echinochloa crusgalli: 10
Poa annua [7]; 62.5 g/ha
  Herbicidal efficacy, Poa annua: 0
Poa annua [7]; 125 g/ha
  Herbicidal efficacy, Poa annua: 2
Poa annua [7]; 250 g/ha
  Herbicidal efficacy, Poa annua: 5
Poa annua [7]; 500 g/ha
  Herbicidal efficacy, Poa annua: 9
Cotton [8]
  Phytotoxicity, Cotton: 0
Poa annua [9]; post-emergence, 125 g/ha
  Herbicidal efficacy, Poa annua: 0
Poa annua [9]; post-emergence, 250 g/ha
  Herbicidal efficacy, Poa annua: 0
Poa annua [9]; post-emergence, 500 g/ha
  Herbicidal efficacy, Poa annua: 3
Poa annua [9]; post-emergence, 1,000 g/ha
  Herbicidal efficacy, Poa annua: 5
Rice [10]
  Phytotoxicity, Rice: 0
Echinochloa crusgalli [11]; post-emergence, 125 g/ha
  Herbicidal efficacy, Echinochloa crusgalli: 0
Echinochloa crusgalli [11]; post-emergence, 250 g/ha
  Herbicidal efficacy, Echinochloa crusgalli: 2
Echinochloa crusgalli [11]; post-emergence, 500 g/ha
  Herbicidal efficacy, Echinochloa crusgalli: 5
Echinochloa crusgalli [11]; post-emergence, 1,000 g/ha
  Herbicidal efficacy, Echinochloa crusgalli: 7
Cotton [12]
  Phytotoxicity, Cotton: 0
Rice [13]
  Phytotoxicity, Rice: 0
Wheat [14]
  Phytotoxicity, Wheat: 0
Wheat [15]
  Phytotoxicity, Wheat: 0
Soybean [16]
  Phytotoxicity, Soybean: 0
Corn [17]
  Phytotoxicity, Corn: 0
Alopecurus myosuroides [18]; post-emergence, 125 g/ha
  Herbicidal efficacy, Alopecurus myosuroides: 0
Alopecurus myosuroides [18]; post-emergence, 250 g/ha
  Herbicidal efficacy, Alopecurus myosuroides: 0
Alopecurus myosuroides [18]; post-emergence, 500 g/ha
  Herbicidal efficacy, Alopecurus myosuroides: 0
Alopecurus myosuroides [18]; post-emergence, 1,000 g/ha
  Herbicidal efficacy, Alopecurus myosuroides: 2
